Test results published in US12404262B2 (priority 2021, dated 2025).

Conditions: 1.0% DMSO, 24-hour incubation at ambient temperature, maximum theoretical 100 μM; for pH 2 solubility: 0.1N HCl, first value of the cell; for pH 7 solubility: 1×PBS buffer (pH 7.4), second value of the cell

SMILES	pH 2 solubility	pH 7 solubility
CC(C)(C#Cc1ccc(-c2ccc(Cl)c3c(N(C(=O)NC(COP(=O)(O)O)COP(=O)(O)O)S(C)(=O)=O)nn(CC(F)(F)F)c23)c([C@H](Cc2cc(F)cc(F)c2)NC(=O)Cn2nc(C(F)(F)F)c3c2C(F)(F)[C@@H]2C[C@H]32)n1)S(C)(=O)=O [Compound 38, 2-(3-(4-chloro-7-(2-((S)-1-(2-((3bS,4aR)-5,5-difluoro-3-(trifluoromethyl)-3b,4,4a,5-tetrahydro-1H-cyclopropa[3,4]cyclopenta[1,2-c]pyrazol-1-yl)acetamido)-2-(3,5-difluorophenyl)ethyl)-6-(3-methyl-3-(methylsulfonyl)but-1-yn-1-yl)pyridin-3-yl)-1-(2,2,2-trifluoroethyl)-1H-indazol-3-yl)-3-(methylsulfonyl)ureido)propane-1,3-diyl bis(dihydrogen phosphate)]	10 μM	16 μM
C[C@H](O)[C@H](C)OC(=O)N(c1nn(CC(F)(F)F)c2c(-c3ccc(C#CC(C)(C)S(C)(=O)=O)nc3[C@H](Cc3cc(F)cc(F)c3)NC(=O)Cn3nc(C(F)(F)F)c4c3C(F)(F)[C@@H]3C[C@H]43)ccc(Cl)c12)S(C)(=O)=O [Compound 95, (2S,3S)-3-hydroxybutan-2-yl (4-chloro-7-(2-((S)-1-(2-((3bS,4aR)-5,5-difluoro-3-(trifluoromethyl)-3b,4,4a,5-tetrahydro-1H-cyclopropa[3,4]cyclopenta[1,2-c]pyrazol-1-yl)acetamido)-2-(3,5-difluorophenyl)ethyl)-6-(3-methyl-3-(methylsulfonyl)but-1-yn-1-yl)pyridin-3-yl)-1-(2,2,2-trifluoroethyl)-1H-indazol-3-yl)(methylsulfonyl)carbamate]	1 μM	3 μM
C[C@@H](OP(=O)(O)O)[C@H](NC(=O)N(c1nn(CC(F)(F)F)c2c(-c3ccc(C#CC(C)(C)S(C)(=O)=O)nc3[C@H](Cc3cc(F)cc(F)c3)NC(=O)Cn3nc(C(F)(F)F)c4c3C(F)(F)[C@@H]3C[C@H]43)ccc(Cl)c12)S(C)(=O)=O)C(=O)O [Compound 62, N-((4-chloro-7-(2-((S)-1-(2-((3bS,4aR)-5,5-difluoro-3-(trifluoromethyl)-3b,4,4a,5-tetrahydro-1H-cyclopropa[3,4]cyclopenta[1,2-c]pyrazol-1-yl)acetamido)-2-(3,5-difluorophenyl)ethyl)-6-(3-methyl-3-(methylsulfonyl)but-1-yn-1-yl)pyridin-3-yl)-1-(2,2,2-trifluoroethyl)-1H-indazol-3-yl)(methylsulfonyl)carbamoyl)-O-phosphono-L-threonine]	4 μM	14 μM
CC(C)(C#Cc1ccc(-c2ccc(Cl)c3c(N(C(=O)CCN4CCNCC4)S(C)(=O)=O)nn(CC(F)(F)F)c23)c([C@H](Cc2cc(F)cc(F)c2)NC(=O)Cn2nc(C(F)(F)F)c3c2C(F)(F)[C@@H]2C[C@H]32)n1)S(C)(=O)=O [Compound 9, N-(4-chloro-7-(2-((S)-1-(2-((3bS,4aR)-5,5-difluoro-3-(trifluoromethyl)-3b,4,4a,5-tetrahydro-1H-cyclopropa[3,4]cyclopenta[1,2-c]pyrazol-1-yl)acetamido)-2-(3,5-difluorophenyl)ethyl)-6-(3-methyl-3-(methylsulfonyl)but-1-yn-1-yl)pyridin-3-yl)-1-(2,2,2-trifluoroethyl)-1H-indazol-3-yl)-N-(methylsulfonyl)-3-(piperazin-1-yl)propanamide]	2 μM	21 μM
CN(CCNC(=N)N)C(=O)N(c1nn(CC(F)(F)F)c2c(-c3ccc(C#CC(C)(C)S(C)(=O)=O)nc3[C@H](Cc3cc(F)cc(F)c3)NC(=O)Cn3nc(C(F)(F)F)c4c3C(F)(F)[C@@H]3C[C@H]43)ccc(Cl)c12)S(C)(=O)=O [Compound 75, N—((S)-1-(3-(4-chloro-3-(N-((2-guanidinoethyl)(methyl)carbamoyl)methylsulfonamido)-1-(2,2,2-trifluoroethyl)-1H-indazol-7-yl)-6-(3-methyl-3-(methylsulfonyl)but-1-yn-1-yl)pyridin-2-yl)-2-(3,5-difluorophenyl)ethyl)-2-((3bS,4aR)-5,5-difluoro-3-(trifluoromethyl)-3b,4,4a,5-tetrahydro-1H-cyclopropa[3,4]cyclopenta[1,2-c]pyrazol-1-yl)acetamide]	16 μM	13 μM

Now from value to compound:

pH 2 solubility	pH 7 solubility	SMILES
1/1 μM	1/1 μM	CC(C)(CO)C(=O)OCN(c1nn(CC(F)(F)F)c2c(-c3ccc(C#CC(C)(C)S(C)(=O)=O)nc3[C@H](Cc3cc(F)cc(F)c3)NC(=O)Cn3nc(C(F)(F)F)c4c3C(F)(F)[C@@H]3C[C@H]43)ccc(Cl)c12)S(C)(=O)=O [Compound 24, (N-(4-chloro-7-(2-((S)-1-(2-((3bS,4aR)-5,5-difluoro-3-(trifluoromethyl)-3b,4,4a,5-tetrahydro-1H-cyclopropa[3,4]cyclopenta[1,2-c]pyrazol-1-yl)acetamido)-2-(3,5-difluorophenyl)ethyl)-6-(3-methyl-3-(methylsulfonyl)but-1-yn-1-yl)pyridin-3-yl)-1-(2,2,2-trifluoroethyl)-1H-indazol-3-yl)methylsulfonamido)methyl 3-hydroxy-2,2-dimethylpropanoate]
1 μM	100 μM	CC(C)(C#Cc1ccc(-c2ccc(Cl)c3c(N(C(=O)OCCOCCOCCOP(=O)(O)O)S(C)(=O)=O)nn(CC(F)(F)F)c23)c([C@H](Cc2cc(F)cc(F)c2)NC(=O)Cn2nc(C(F)(F)F)c3c2C(F)(F)[C@@H]2C[C@H]32)n1)S(C)(=O)=O [Compound 108, 2-(2-(2-(phosphonooxy)ethoxy)ethoxy)ethyl (4-chloro-7-(2-((S)-1-(2-((3bS,4aR)-5,5-difluoro-3-(trifluoromethyl)-3b,4,4a,5-tetrahydro-1H-cyclopropa[3,4]cyclopenta[1,2-c]pyrazol-1-yl)acetamido)-2-(3,5-difluorophenyl)ethyl)-6-(3-methyl-3-(methylsulfonyl)but-1-yn-1-yl)pyridin-3-yl)-1-(2,2,2-trifluoroethyl)-1H-indazol-3-yl)(methylsulfonyl)carbamate]
1 μM	52 μM	CC(C)(C#Cc1ccc(-c2ccc(Cl)c3c(N(C(=O)N[C@@](C)(CC(=O)O)C(=O)O)S(C)(=O)=O)nn(CC(F)(F)F)c23)c([C@H](Cc2cc(F)cc(F)c2)NC(=O)Cn2nc(C(F)(F)F)c3c2C(F)(F)[C@@H]2C[C@H]32)n1)S(C)(=O)=O [Compound 65, (S)-2-(3-(4-chloro-7-(2-((S)-1-(2-((3bS,4aR)-5,5-difluoro-3-(trifluoromethyl)-3b,4,4a,5-tetrahydro-1H-cyclopropa[3,4]cyclopenta[1,2-c]pyrazol-1-yl)acetamido)-2-(3,5-difluorophenyl)ethyl)-6-(3-methyl-3-(methylsulfonyl)but-1-yn-1-yl)pyridin-3-yl)-1-(2,2,2-trifluoroethyl)-1H-indazol-3-yl)-3-(methylsulfonyl)ureido)-2-methylsuccinic acid]
50 μM	3 μM	CN1CCN(CC(=O)N(c2nn(CC(F)(F)F)c3c(-c4ccc(C#CC(C)(C)S(C)(=O)=O)nc4[C@H](Cc4cc(F)cc(F)c4)NC(=O)Cn4nc(C(F)(F)F)c5c4C(F)(F)[C@@H]4C[C@H]54)ccc(Cl)c23)S(C)(=O)=O)CC1 [Compound 6, (N-(4-chloro-7-(2-((S)-1-(2-((3bS,4aR)-5,5-difluoro-3-(trifluoromethyl)-3b,4,4a,5-tetrahydro-1H-cyclopropa[3,4]cyclopenta[1,2-c]pyrazol-1-yl)acetamido)-2-(3,5-difluorophenyl)ethyl)-6-(3-methyl-3-(methylsulfonyl)but-1-yn-1-yl)pyridin-3-yl)-1-(2,2,2-trifluoroethyl)-1H-indazol-3-yl)-2-(4-methylpiperazin-1-yl)-N-(methylsulfonyl)acetamide)]
1 μM	73 μM	CC(C)(COP(=O)(O)O)C(=O)OCN(c1nn(CC(F)(F)F)c2c(-c3ccc(C#CC(C)(C)S(C)(=O)=O)nc3[C@H](Cc3cc(F)cc(F)c3)NC(=O)Cn3nc(C(F)(F)F)c4c3C(F)(F)[C@@H]3C[C@H]43)ccc(Cl)c12)S(C)(=O)=O [Compound 25, (N-(4-chloro-7-(2-((S)-1-(2-((3bS,4aR)-5,5-difluoro-3-(trifluoromethyl)-3b,4,4a,5-tetrahydro-1H-cyclopropa[3,4]cyclopenta[1,2-c]pyrazol-1-yl)acetamido)-2-(3,5-difluorophenyl)ethyl)-6-(3-methyl-3-(methylsulfonyl)but-1-yn-1-yl)pyridin-3-yl)-1-(2,2,2-trifluoroethyl)-1H-indazol-3-yl)methylsulfonamido)methyl 2,2-dimethyl-3-(phosphonooxy)propanoate]
1 μM	82 μM	C[C@H](CN(C)C(=O)N(c1nn(CC(F)(F)F)c2c(-c3ccc(C#CC(C)(C)S(C)(=O)=O)nc3[C@H](Cc3cc(F)cc(F)c3)NC(=O)Cn3nc(C(F)(F)F)c4c3C(F)(F)[C@@H]3C[C@H]43)ccc(Cl)c12)S(C)(=O)=O)OP(=O)(O)O [Compound 49, (R)-1-(3-(4-chloro-7-(2-((S)-1-(2-((3bS,4aR)-5,5-difluoro-3-(trifluoromethyl)-3b,4,4a,5-tetrahydro-1H-cyclopropa[3,4]cyclopenta[1,2-c]pyrazol-1-yl)acetamido)-2-(3,5-difluorophenyl)ethyl)-6-(3-methyl-3-(methylsulfonyl)but-1-yn-1-yl)pyridin-3-yl)-1-(2,2,2-trifluoroethyl)-1H-indazol-3-yl)-1-methyl-3-(methylsulfonyl)ureido)propan-2-yl dihydrogen phosphate]
